Patent US12377104B1, “Methods for treating a fatty liver disease” (Madrigal Pharmaceuticals, Inc., priority 2024, dated 2025)

Columns and labels:
[1] = Excretion after 100 mg radio-labeled oral dose; type: in vivo, human
From the text: A metabolite MGL-3623 accounted for 3.3% and 16% of the dose recovered in feces and urine, respectively.

[2] = system: adults with biopsy-confirmed NASH; assay: MAESTRO-NASH: adverse events, serious adverse events, malignancies; details: for Adverse event: Abdominal distension / Adverse event: Abdominal pain / Adverse event: Abdominal pain upper / Adverse event: Constipation / Adverse event: Cough / Adverse event: Decreased appetite / Adverse event: Dizziness / Adverse event: Gastrooesophageal reflux disease / Adverse event: Headache / Adverse event: Hypertension / Adverse event: Muscle spasms / Adverse event: Nasopharyngitis / Adverse event: Pain in extremity / Adverse event: Procedural pain / Adverse event: Rash / Adverse event: Sinusitis / Adverse event: Type 2 diabetes / Adverse event: Upper respiratory tract infection / Adverse event: Vomiting: safety population
From the text: Safety end points included adverse events, biochemical assessments, and clinical assessments. Selected serious adverse events (including deaths, cardiovascular events, and potential drug-induced liver injury) were adjudicated by independent, external event-adjudication committees whose members were unaware of the trial-group assignments.

## CC(C)c1cc(Oc2c(Cl)cc(-n3nc(C#N)c(=O)[nH]c3=O)cc2Cl)n[nH]c1=O [Resmetirom, 2-(3,5-dichloro-4-((5-isopropyl-6-oxo-1,6-dihydropyridazin-3-yl)oxy)phenyl)-3,5-dioxo-2,3,4,5-tetrahydro-1,2,4-triazine-6-carbonitrile]
[1]
  total radioactive dose recovered in feces: approximately 67%
  total radioactive dose recovered in urine: 24%
  unchanged labeled drug in feces: not detected
  unchanged labeled drug, dose recovered in urine: 1%
[2]; 80 mg
  Adverse event leading to trial discontinuation before wk 52, number of patients: 6
  Adverse event leading to trial discontinuation during entire treatment period, number of patients: 9
  Adverse event leading to trial discontinuation during entire treatment period, percent of patients: (2.8) percent
  Arthralgia, number of patients: 48
  Arthralgia, percent of patients: (14.9) percent
  Back pain, number of patients: 35
  Back pain, percent of patients: (10.9) percent
  Cancer reported, patients: 1.2%
  Covid-19, number of patients: 69
  Covid-19, percent of patients: (21.4) percent
  Diarrhea, number of patients: 87
  Diarrhea, percent of patients: (27.0) percent
  Fatal adverse event, number of patients: 1
  Fatal adverse event, percent of patients: (0.3) percent
  Fatigue, number of patients: 33
  Fatigue, percent of patients: (10.2) percent
  Grade 1: mild, number of patients: 73
  Grade 1: mild, percent of patients: (22.7) percent
  Grade 2: moderate, number of patients: 180
  Grade 2: moderate, percent of patients: (55.9) percent
  Grade 3 or higher: severe, number of patients: 43
  Grade 3 or higher: severe, percent of patients: (13.4) percent
  Major adverse cardiovascular event, number of patients: 1
  Major adverse cardiovascular event, percent of patients: (0.3) percent
  Nausea, number of patients: 71
  Nausea, percent of patients: (22.0) percent
  Other cardiovascular event, number of patients: 0
  Pruritus, number of patients: 26
  Pruritus, percent of patients: (8.1) percent
  Urinary tract infection, number of patients: 33
  Urinary tract infection, percent of patients: (10.2) percent
  ≥1 Adverse event attributed to resmetirom, number of patients: 124
  ≥1 Adverse event attributed to resmetirom, percent of patients: (38.5) percent
  ≥1 Adverse event, number of patients: 296
  ≥1 Adverse event, percent of patients: (91.9) percent
  ≥1 Serious adverse event attributed to resmetirom, number of patients: 2
  ≥1 Serious adverse event attributed to resmetirom, percent of patients: (0.6) percent
  ≥1 Serious adverse event, number of patients: 35
[2]; 80 mg (N = 322)
  Malignancy: Basal cell carcinoma: 2 (0.6) n (%)
  Malignancy: Breast carcinoma: 1 (0.3) n (%)
  Malignancy: Malignant melanoma: 0 n (%)
  Malignancy: Skin cancer (squamous cell): 1 (0.3) n (%)
  Patients with any malignancy: 4 (1.2) n (%)
  Patients with at least one TE-SAEs: 35 (10.9) n (%)
  SAE: Acute Gallstone-related disorders: 3 (0.9) n (%)
  SAE: COVID-19: 1 (0.3) n (%)
  SAE: COVID-19 pneumonia: 2 (0.6) n (%)
  SAE: Cardiac disorders: 3 (0.9) n (%)
  SAE: Gastrointestinal disorders: 3 (0.9) n (%)
  SAE: General disorders and administration site conditions: 2 (0.6) n (%)
  SAE: Infections and infestations: 12 (3.7) n (%)
  SAE: Injury, poisoning and procedural complications: 3 (0.9) n (%)
  SAE: Musculoskeletal and connective tissue disorders: 7 (2.2) n (%)
  SAE: Nervous system disorders: 3 (0.9) n (%)
  SAE: Post procedural haemorrhage: 1 (0.3) n (%)
  SAE: Respiratory, thoracic and mediastinal disorders: 3 (0.9) n (%)
[2]; 80 mg (n = 322)
  Adverse event: Abdominal distension: 14 (4.3) no. (%)
  Adverse event: Abdominal pain: 23 (7.1) no. (%)
  Adverse event: Abdominal pain upper: 23 (7.1) no. (%)
  Adverse event: Constipation: 21 (6.5) no. (%)
  Adverse event: Cough: 14 (4.3) no. (%)
  Adverse event: Decreased appetite: 5 (1.6) no. (%)
  Adverse event: Dizziness: 20 (6.2) no. (%)
  Adverse event: Gastrooesophageal reflux disease: 16 (5.0) no. (%)
  Adverse event: Headache: 30 (9.3) no. (%)
  Adverse event: Hypertension: 16 (5.0) no. (%)
  Adverse event: Muscle spasms: 14 (4.3) no. (%)
  Adverse event: Nasopharyngitis: 14 (4.3) no. (%)
  Adverse event: Pain in extremity: 12 (3.7) no. (%)
  Adverse event: Procedural pain: 16 (5.0) no. (%)
  Adverse event: Rash: 12 (3.7) no. (%)
  Adverse event: Sinusitis: 10 (3.1) no. (%)
  Adverse event: Type 2 diabetes: 24 (7.5) no. (%)
  Adverse event: Upper respiratory tract infection: 23 (7.1) no. (%)
  Adverse event: Vomiting: 28 (8.7) no. (%)
[2]; 100 mg
  Adverse event leading to trial discontinuation before wk 52, number of patients: 22
  Adverse event leading to trial discontinuation during entire treatment period, number of patients: 25
  Adverse event leading to trial discontinuation during entire treatment period, percent of patients: (7.7) percent
  Arthralgia, number of patients: 35
  Arthralgia, percent of patients: (10.8) percent
  Back pain, number of patients: 27
  Back pain, percent of patients: (8.4) percent
  Cancer reported, patients: 3.4%
  Covid-19, number of patients: 54
  Covid-19, percent of patients: (16.7) percent
  Diarrhea, number of patients: 108
  Diarrhea, percent of patients: (33.4) percent
  Fatal adverse event, number of patients: 2
  Fatal adverse event, percent of patients: (0.6) percent
  Fatigue, number of patients: 26
  Fatigue, percent of patients: (8.0) percent
  Grade 1: mild, number of patients: 66
  Grade 1: mild, percent of patients: (20.4) percent
  Grade 2: moderate, number of patients: 183
  Grade 2: moderate, percent of patients: (56.7) percent
  Grade 3 or higher: severe, number of patients: 47
  Grade 3 or higher: severe, percent of patients: (14.6) percent
  Major adverse cardiovascular event, number of patients: 1
  Major adverse cardiovascular event, percent of patients: (0.3) percent
  Nausea, number of patients: 61
  Nausea, percent of patients: (18.9) percent
  Other cardiovascular event, number of patients: 1
  Other cardiovascular event, percent of patients: (0.3) percent
  Pruritus, number of patients: 37
  Pruritus, percent of patients: (11.5) percent
  Urinary tract infection, number of patients: 27
  Urinary tract infection, percent of patients: (8.4) percent
  ≥1 Adverse event attributed to resmetirom, number of patients: 134
  ≥1 Adverse event attributed to resmetirom, percent of patients: (41.5) percent
  ≥1 Adverse event, number of patients: 296
  ≥1 Adverse event, percent of patients: (91.6) percent
  ≥1 Serious adverse event attributed to resmetirom, number of patients: 0
  ≥1 Serious adverse event, number of patients: 41
[2]; 100 mg (N = 323)
  Malignancy: Basal cell carcinoma: 3 (0.9) n (%)
  Malignancy: Breast carcinoma: 2 (0.6) n (%)
  Malignancy: Malignant melanoma: 1 (0.3) n (%)
  Malignancy: Skin cancer (squamous cell): 1 (0.3) n (%)
  Patients with any malignancy: 11 (3.4) n (%)
  Patients with at least one TE-SAEs: 41 (12.7) n (%)
  SAE: Acute Gallstone-related disorders: 3 (0.9) n (%)
  SAE: COVID-19: 1 (0.3) n (%)
  SAE: COVID-19 pneumonia: 0 n (%)
  SAE: Cardiac disorders: 3 (0.9) n (%)
  SAE: Gastrointestinal disorders: 7 (2.2) n (%)
  SAE: General disorders and administration site conditions: 5 (1.5) n (%)
  SAE: Infections and infestations: 5 (1.5) n (%)
  SAE: Injury, poisoning and procedural complications: 8 (2.5) n (%)
  SAE: Musculoskeletal and connective tissue disorders: 1 (0.3) n (%)
  SAE: Nervous system disorders: 2 (0.6) n (%)
  SAE: Post procedural haemorrhage: 1 (0.3) n (%)
  SAE: Respiratory, thoracic and mediastinal disorders: 4 (1.2) n (%)
[2]; 100 mg (n = 323)
  Adverse event: Abdominal distension: 13 (4.0) no. (%)
  Adverse event: Abdominal pain: 29 (9.0) no. (%)
  Adverse event: Abdominal pain upper: 27 (8.4) no. (%)
  Adverse event: Constipation: 28 (8.7) no. (%)
  Adverse event: Cough: 18 (5.6) no. (%)
  Adverse event: Decreased appetite: 16 (5.0) no. (%)
  Adverse event: Dizziness: 19 (5.9) no. (%)
  Adverse event: Gastrooesophageal reflux disease: 7 (2.2) no. (%)
  Adverse event: Headache: 25 (7.7) no. (%)
  Adverse event: Hypertension: 13 (4.0) no. (%)
  Adverse event: Muscle spasms: 22 (6.8) no. (%)
  Adverse event: Nasopharyngitis: 20 (6.2) no. (%)
  Adverse event: Pain in extremity: 12 (3.7) no. (%)
  Adverse event: Procedural pain: 9 (2.8) no. (%)
  Adverse event: Rash: 21 (6.5) no. (%)
  Adverse event: Sinusitis: 13 (4.0) no. (%)
  Adverse event: Type 2 diabetes: 26 (8.0) no. (%)
  Adverse event: Upper respiratory tract infection: 8 (2.5) no. (%)
  Adverse event: Vomiting: 35 (10.8) no. (%)
[2]; in vivo
  drug-induced liver injury: no incidence of drug-induced liver injury
  severe diarrhea: no episodes of severe diarrhea
[2]; independent of dose
  median duration of diarrhea: 15 to 20 days
